# In ChEMBL document CHEMBL5465560, “Selectivity Literature for EUbOPEN Chemogenomic Library” (2024):
# Key:
# [1] = biological target: Glycogen synthase kinase-3 alpha (Homo sapiens, UniProt P49840); assay: Selectivity interaction (KinomeScan (DiscoverX)) EUB0001049a GSK3A; details: at 1 µM
# [2] = biological target: T1, Mitogen-activated protein kinase kinase kinase 6 (Homo sapiens) (UniProt O95382); assay: Selectivity interaction (KinomeScan (DiscoverX)) EUB0001079a MAP3K6; details: at 1 µM
# T1 sequence (whole entry): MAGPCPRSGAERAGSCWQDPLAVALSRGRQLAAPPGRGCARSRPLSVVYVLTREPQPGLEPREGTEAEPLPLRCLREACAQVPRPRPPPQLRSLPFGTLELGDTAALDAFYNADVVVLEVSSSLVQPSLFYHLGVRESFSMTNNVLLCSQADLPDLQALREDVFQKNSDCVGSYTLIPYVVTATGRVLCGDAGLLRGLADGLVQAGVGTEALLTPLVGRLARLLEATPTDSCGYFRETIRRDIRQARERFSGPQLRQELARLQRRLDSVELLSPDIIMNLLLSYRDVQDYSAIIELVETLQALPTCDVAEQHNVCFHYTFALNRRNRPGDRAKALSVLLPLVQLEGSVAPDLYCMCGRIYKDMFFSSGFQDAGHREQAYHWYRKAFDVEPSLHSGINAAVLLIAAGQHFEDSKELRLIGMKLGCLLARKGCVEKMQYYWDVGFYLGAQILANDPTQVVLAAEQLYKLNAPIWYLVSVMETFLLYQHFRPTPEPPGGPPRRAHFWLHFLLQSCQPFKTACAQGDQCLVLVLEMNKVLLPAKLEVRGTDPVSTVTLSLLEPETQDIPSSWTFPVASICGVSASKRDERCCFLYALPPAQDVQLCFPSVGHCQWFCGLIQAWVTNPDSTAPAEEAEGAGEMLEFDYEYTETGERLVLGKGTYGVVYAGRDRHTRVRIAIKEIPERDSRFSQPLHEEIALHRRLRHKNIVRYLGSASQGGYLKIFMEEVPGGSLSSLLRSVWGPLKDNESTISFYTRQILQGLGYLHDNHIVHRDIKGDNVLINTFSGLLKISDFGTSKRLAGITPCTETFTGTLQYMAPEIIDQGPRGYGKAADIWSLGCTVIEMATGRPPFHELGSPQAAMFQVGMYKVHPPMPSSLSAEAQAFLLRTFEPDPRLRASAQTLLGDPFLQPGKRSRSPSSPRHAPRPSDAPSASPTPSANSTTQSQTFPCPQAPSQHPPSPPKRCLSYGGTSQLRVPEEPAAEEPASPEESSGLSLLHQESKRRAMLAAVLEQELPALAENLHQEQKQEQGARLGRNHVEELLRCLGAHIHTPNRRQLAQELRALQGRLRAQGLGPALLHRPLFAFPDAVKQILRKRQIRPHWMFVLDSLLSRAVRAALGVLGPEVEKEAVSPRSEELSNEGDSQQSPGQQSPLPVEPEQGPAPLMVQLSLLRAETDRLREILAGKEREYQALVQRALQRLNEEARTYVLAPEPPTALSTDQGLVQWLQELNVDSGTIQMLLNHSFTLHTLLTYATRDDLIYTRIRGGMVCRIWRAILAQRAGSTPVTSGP
# [3] = biological target: Non-receptor tyrosine-protein kinase TYK2 (Homo sapiens, UniProt P29597); assay: Selectivity interaction (Kinase panel (Invitrogen)) EUB0000639a TYK2; details: at 200 nM
# [4] = biological target: MAP kinase-activated protein kinase 2 (Homo sapiens, UniProt P49137); assay: Selectivity interaction (KinomeScan (DiscoverX)) EUB0001619a MAPKAPK2; details: at 1 µM
# [5] = biological target: T2, Receptor-interacting serine/threonine-protein kinase 1 (Homo sapiens) (UniProt Q13546); assay: Selectivity interaction (KinomeScan (DiscoverX)) EUB0001619a RIPK1; details: at 1 µM
# T2 sequence (whole entry): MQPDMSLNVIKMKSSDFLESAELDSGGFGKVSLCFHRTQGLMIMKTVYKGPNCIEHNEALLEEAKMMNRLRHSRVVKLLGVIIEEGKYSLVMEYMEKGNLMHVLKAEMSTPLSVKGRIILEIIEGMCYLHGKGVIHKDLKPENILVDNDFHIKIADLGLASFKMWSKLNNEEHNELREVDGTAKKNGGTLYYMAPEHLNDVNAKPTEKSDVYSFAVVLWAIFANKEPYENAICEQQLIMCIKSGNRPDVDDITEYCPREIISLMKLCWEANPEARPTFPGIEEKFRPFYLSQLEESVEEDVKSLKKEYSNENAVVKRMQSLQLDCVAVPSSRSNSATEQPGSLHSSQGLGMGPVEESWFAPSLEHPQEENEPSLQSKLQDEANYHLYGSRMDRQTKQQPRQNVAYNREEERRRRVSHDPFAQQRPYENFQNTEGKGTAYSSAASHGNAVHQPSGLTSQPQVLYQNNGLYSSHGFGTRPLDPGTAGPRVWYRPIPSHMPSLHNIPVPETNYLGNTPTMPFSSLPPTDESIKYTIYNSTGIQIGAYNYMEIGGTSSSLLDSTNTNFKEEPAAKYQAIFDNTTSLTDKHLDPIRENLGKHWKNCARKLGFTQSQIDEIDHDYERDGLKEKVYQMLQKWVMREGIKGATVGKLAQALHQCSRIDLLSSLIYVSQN
# [6] = biological target: T3, Mitogen-activated protein kinase kinase kinase kinase 2 (Homo sapiens) (UniProt Q12851); assay: Selectivity interaction (KinomeScan (DiscoverX)) EUB0000607a MAP4K2; details: at 10 µM
# T3 sequence (whole entry): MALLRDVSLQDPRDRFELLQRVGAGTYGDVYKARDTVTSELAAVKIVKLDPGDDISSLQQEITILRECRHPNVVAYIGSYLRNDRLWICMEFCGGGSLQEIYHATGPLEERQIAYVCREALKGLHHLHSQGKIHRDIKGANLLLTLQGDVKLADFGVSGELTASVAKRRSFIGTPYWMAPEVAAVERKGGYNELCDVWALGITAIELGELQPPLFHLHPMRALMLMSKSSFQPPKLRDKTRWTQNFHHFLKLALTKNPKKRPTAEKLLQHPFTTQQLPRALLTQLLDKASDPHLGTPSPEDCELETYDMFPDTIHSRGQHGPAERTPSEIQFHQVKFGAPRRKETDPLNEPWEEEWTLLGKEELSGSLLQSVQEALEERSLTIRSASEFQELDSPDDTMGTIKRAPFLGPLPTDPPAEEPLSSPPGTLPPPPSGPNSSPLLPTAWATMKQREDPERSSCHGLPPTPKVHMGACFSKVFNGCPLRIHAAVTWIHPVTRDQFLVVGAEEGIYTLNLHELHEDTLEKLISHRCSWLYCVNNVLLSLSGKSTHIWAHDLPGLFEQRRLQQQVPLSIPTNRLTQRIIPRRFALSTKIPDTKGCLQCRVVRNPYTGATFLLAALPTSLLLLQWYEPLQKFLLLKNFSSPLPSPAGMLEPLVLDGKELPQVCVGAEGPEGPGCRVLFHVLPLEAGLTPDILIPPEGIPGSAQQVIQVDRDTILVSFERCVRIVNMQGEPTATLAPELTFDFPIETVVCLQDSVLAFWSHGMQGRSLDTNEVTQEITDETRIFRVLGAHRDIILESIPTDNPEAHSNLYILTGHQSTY
# MAP kinase-activated protein kinase 2, sequence (P49137 whole entry, looked up): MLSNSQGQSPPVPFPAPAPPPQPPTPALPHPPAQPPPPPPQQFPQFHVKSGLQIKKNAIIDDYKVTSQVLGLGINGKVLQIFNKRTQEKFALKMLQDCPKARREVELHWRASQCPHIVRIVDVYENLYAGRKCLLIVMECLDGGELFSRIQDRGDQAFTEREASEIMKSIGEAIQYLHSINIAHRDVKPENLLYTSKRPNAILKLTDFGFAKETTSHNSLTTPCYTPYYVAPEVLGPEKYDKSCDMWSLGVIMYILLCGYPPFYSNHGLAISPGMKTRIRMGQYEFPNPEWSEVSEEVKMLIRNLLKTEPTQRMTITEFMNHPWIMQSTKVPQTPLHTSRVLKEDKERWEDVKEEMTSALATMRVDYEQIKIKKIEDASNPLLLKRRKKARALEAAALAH
# Non-receptor tyrosine-protein kinase TYK2, sequence (P29597 whole entry): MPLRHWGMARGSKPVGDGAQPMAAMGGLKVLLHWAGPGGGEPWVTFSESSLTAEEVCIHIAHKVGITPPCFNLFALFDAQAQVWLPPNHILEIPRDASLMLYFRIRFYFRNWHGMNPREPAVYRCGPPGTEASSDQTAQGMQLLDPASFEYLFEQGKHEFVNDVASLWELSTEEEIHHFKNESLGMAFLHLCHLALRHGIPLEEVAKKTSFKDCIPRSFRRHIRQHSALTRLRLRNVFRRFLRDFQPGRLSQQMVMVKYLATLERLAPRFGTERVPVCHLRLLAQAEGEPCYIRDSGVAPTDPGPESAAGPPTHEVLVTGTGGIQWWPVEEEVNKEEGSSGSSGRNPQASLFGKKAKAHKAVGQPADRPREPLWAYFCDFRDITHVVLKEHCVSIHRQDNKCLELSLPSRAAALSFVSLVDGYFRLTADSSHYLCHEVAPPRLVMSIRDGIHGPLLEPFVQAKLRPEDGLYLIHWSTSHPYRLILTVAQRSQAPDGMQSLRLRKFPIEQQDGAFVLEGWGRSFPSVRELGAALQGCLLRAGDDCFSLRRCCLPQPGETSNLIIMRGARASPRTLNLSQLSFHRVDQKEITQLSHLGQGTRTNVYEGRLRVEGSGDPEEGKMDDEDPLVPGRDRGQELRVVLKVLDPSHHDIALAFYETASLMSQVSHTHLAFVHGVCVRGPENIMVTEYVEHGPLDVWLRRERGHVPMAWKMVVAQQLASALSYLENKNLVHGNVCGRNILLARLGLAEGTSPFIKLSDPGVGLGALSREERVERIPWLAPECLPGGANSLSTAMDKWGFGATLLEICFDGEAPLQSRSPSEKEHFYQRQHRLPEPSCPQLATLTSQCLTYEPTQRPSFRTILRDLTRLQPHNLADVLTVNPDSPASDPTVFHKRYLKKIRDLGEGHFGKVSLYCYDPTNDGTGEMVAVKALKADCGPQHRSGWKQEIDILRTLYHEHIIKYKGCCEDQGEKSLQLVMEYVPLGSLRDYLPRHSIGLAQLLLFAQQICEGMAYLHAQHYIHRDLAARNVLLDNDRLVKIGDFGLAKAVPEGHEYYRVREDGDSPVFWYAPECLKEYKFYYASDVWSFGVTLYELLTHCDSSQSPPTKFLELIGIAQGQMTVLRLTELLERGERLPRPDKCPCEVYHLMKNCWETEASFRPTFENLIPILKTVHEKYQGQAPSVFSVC
# Glycogen synthase kinase-3 alpha, sequence (P49840 2-483 limits assumed): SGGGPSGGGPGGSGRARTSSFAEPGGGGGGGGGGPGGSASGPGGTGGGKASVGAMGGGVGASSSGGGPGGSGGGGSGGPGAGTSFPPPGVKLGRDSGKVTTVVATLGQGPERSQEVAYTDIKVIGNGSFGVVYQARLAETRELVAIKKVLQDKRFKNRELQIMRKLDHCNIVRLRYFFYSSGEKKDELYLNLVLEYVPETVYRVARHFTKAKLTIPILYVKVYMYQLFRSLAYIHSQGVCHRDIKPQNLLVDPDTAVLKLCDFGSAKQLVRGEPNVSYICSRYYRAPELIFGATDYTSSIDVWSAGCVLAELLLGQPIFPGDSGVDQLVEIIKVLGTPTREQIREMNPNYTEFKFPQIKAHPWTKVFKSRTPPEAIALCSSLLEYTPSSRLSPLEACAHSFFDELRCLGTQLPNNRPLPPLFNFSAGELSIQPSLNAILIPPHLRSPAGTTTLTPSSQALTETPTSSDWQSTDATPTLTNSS
structure (smiles),measurement,setting,value
COc1cc(Nc2nc(C)cc(-c3cnn4nc(OC)ccc34)n2)cc(C(F)(F)F)c1,% of control,[1],100%
Nc1cnc(N2CCc3cc(S(=O)(=O)Nc4c(F)cc(Cl)cc4F)cc(N4CCCC4=O)c32)nc1 [TP-020n],% of control,[2],75%
CC[C@@H]1[C@H](F)C(=O)N[C@@H]1COc1nccc2cc(C(N)=O)c(OC)cc12 [ZIMLOVISERTIB],% of inhibition,[3],5.13%
N#Cc1cccc(-c2c[nH]c3ncnc(N4CCOCC4)c23)c1,% of control,[4],100%
same,% of control,[5],100%
CNC(=O)Nc1ccc(-c2nc(N3CC4CCC(C3)O4)c3cnn(C4CCC5(CC4)OCCO5)c3n2)cc1,% of control,[6],100%
